The results in this text go back to paper PMC10472371, “Discovery of E2730, a novel selective uncompetitive GAT1 inhibitor, as a candidate for anti‐seizure medication” (Epilepsia Open, 2023).

Structures are written as SMILES. “Also recorded” adds a separate entry of the source.

The test system of one assay is Fmr1 KO mice. As to the kind of experiment: Audiogenic seizures in Fmr1 knockout mice (fragile X syndrome model). Type of assay: in vivo. The note with it: Mus musculus, oral, 1 hour before audio stimulation, read-out: ED50 (95% CI) for tonic-clonic seizures, audiogenic seizures. The method, then:
Fragile X syndrome (FXS) is the most common single‐gene cause of autism spectrum disorder, typically due to mutations in the FMR1 gene; 10–18% of patients with FXS experience seizures.[8] The Fmr1 knockout (KO) mouse is an established animal model for FXS. E2730 (2.5–300 mg/kg) or vehicle was orally administered to Fmr1 KO mice (male, 20–27 days postnatal; Jackson Laboratory) 1 hour prior to drug evaluation. The mice were placed in a sound‐attenuating acoustic chamber and acclimated for 5 minutes and exposed to an audio stimulation (110 dB, 60‐second duration), and the behavior of the stimulated mice was video recorded and monitored for tonic–clonic seizures.

For the next assay, the system named is corneal kindling mice. Nature of the assay: Corneal kindling in mice. The settings on record: Mus musculus; oral, 1 hour before electrical stimulation; read-out: ED50 (95% CI) in corneal kindling mice. Type of assay: in vivo.
Assay [1] relates to extracellular GABA concentration in mouse hippocampus. As to the kind of experiment: Microdialysis: extracellular GABA concentration in mouse hippocampus. Type of assay: in vivo. The method, then: A guide cannula was implanted in the left hippocampus (2.7 mm posterior, 3.3 mm left, and 1.8 mm below from the bregma) of ddY mice (male, 5 weeks old). After 5–7 days of recovery, a microdialysis probe (Eicom) was inserted into the left hippocampus through the guide cannula. The tip of the microdialysis probe reached 4.8 mm below the bregma. The next day, the probe was connected to a perfusion tube and perfused with Ringer solution (containing 147.0 mM NaCl, 4.7 mM KCl, 0.6 mM MgSO4, 2.5 mM CaCl2, 5.0 mM HEPES, pH 7.4) at a flow rate of 1.5 μL/min. After ≥160 minutes of perfusion, collection of the perfusate (30 μL/20 min/fraction) was initiated, and 12 fractions per animal were collected for 240 minutes. E2730 (10–100 mg/kg), tiagabine (3–30 mg/kg), or vehicle was orally administered 72 minutes after initiating sample collection. Tiagabine was used as a reference ASM of a non‐competitive GAT1 inhibitor. Perfusate was switched from Ringer solution to high‐potassium Ringer solution (51.7 mM NaCl, 100.0 mM KCl, 0.6 mM MgSO4, 2.5 mM CaCl2, 5.0 mM HEPES, pH 7.4) after 127 minutes following the collection. GABA concentration in each sample was measured by a high‐performance liquid chromatography with tandem mass spectrometry method.

The target in a further assay is T1, hBGT-1 (Homo sapiens, UniProt P48065).
T1 construct: expressed in transfected cells; host or cells: HEK293
T1 sequence (P48065 1-614): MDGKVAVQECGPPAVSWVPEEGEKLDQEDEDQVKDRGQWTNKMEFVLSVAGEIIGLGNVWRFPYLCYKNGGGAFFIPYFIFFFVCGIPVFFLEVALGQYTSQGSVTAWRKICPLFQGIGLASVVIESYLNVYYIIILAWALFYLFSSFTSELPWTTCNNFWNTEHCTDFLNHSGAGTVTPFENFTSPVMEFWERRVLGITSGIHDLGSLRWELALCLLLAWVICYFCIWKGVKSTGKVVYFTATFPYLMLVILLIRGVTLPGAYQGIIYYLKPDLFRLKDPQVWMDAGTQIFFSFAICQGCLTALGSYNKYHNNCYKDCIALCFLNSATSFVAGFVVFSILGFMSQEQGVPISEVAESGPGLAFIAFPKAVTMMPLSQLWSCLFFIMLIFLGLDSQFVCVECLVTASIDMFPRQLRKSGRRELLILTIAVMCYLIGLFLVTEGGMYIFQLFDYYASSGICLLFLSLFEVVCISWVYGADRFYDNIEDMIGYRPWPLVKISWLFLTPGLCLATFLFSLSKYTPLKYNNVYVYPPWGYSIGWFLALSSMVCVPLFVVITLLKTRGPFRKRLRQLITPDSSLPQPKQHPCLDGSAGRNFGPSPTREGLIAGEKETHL
Nature of the assay: [3H]GABA uptake in hBGT-1 stably expressing HEK293 cells. The note with it: hBGT-1 HEK293 cells, 50 μM [3H]GABA. Type of assay: cell-based. The method, then:
(§1) HEK293 cells stably expressing human GAT1 (hGAT1), GAT2 (hGAT2), GAT3 (hGAT3), or betaine/GABA transporter 1 (hBGT‐1) were plated onto 96‐well microtiter plates at a density of 4.0 × 10^4 cells/well in Dulbecco's Modified Eagle's Medium (DMEM, containing 10% fetal bovine serum, 100 units/mL penicillin, 100 μg/mL streptomycin, 1% non‐essential amino acid solution, and 25 mM HEPES) and incubated overnight at 37°C in a 5% CO2 atmosphere. After washing the cells with Hanks’ balanced salt solution (HBSS, containing 140 mg/L CaCl2, 100 mg/L MgCl2, 20 mM HEPES, and 10 mM NaOH), E2730 (0.0128–1000 μM) was added to the plate. Following the addition of 50 μM [^3H]GABA, cells were incubated for 5 minutes at 37°C in a 5% CO2 atmosphere and then washed with cold HBSS. Washed cells were incubated in a scintillator for 1 hour at room temperature, followed by radioactivity measurements using a liquid scintillation counter.

The target in the next assay is T2, hGAT3 (Homo sapiens, UniProt P48066).
T2 construct: expressed in transfected cells; host or cells: HEK293
T2 sequence (P48066 1-632): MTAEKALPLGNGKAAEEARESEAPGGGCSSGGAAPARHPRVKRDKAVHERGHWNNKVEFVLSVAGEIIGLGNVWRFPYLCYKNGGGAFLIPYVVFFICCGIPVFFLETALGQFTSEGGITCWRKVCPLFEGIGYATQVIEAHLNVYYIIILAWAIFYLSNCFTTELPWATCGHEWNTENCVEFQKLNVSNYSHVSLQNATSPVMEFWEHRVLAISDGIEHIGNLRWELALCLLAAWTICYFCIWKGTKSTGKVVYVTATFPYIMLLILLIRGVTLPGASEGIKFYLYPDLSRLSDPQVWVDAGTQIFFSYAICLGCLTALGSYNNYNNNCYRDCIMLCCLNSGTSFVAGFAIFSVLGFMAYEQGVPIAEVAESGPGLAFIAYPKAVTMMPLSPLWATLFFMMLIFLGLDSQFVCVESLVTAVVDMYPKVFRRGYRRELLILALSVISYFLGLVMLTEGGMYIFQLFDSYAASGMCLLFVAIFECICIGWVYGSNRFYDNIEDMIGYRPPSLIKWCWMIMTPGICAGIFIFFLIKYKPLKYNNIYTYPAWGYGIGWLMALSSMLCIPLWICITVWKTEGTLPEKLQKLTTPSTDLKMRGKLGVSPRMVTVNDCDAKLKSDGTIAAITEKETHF
As to the kind of experiment: [3H]GABA uptake in hGAT3 stably expressing HEK293 cells. Type of assay: cell-based. The note with it: 50 μM [3H]GABA. The protocol: as §1

Setting [2] is: mouse hippocampus, oral, E2730 10-100 mg/kg, tiagabine 3-30 mg/kg.

Description for corneal kindling mice: A corneal kindling mouse model was developed following the method described by Potschka and Löscher.[7] Male C57BL/6N mice (5 weeks old; Charles River Laboratories Japan, Japan) were stimulated using corneal electrodes (4 mA, 50 Hz, 3‐second duration each) twice daily for 10 consecutive days, and stimulated mice were observed and rated based on the Racine's scale (0, no seizure; 1, mild facial clonus and eye blinking; 2, severe facial clonus, head nodding, or chewing; 3, unilateral or alternating forelimb clonus; 4, bilateral forelimb clonus and rearing; 5, bilateral forelimb clonus with rearing and falling). Mice with scores ≥3 were deemed epileptic, whereas mice with scores <3 were deemed non‐epileptic. Mice rated 4 or 5 (i.e. fully kindled mice) were used for drug evaluation.

Consider `NS(=O)(=O)N[C@H]1c2c(F)cc(F)cc2CC1(F)F` [E2730], for which the ED50 (in general, the dose that gives a 50% effect, or the effect in half of the subjects) in the assay with Fmr1 KO mice was 17.1 mg/kg; in the assay on corneal kindling mice, 7.9 mg/kg. The “effect on high-potassium-induced extracellular GABA concentration” value in assay [1] (E2730 10 mg/kg) is recorded as “not statistically significant”; in assay [1] (E2730 30 and 100 mg/kg) it was “significantly increased”; in assay [1] (setting [2]), “significant increase”. The “effect on basal extracellular GABA concentration” value in assay [1] (setting [2]) is “no significant difference; also recorded: did not increase; also recorded: did not affect”. The IC50 (commonly the concentration needed to halve the response being measured) against hBGT-1 was 890 µM; at hGAT3, greater than 1000 µM.
